{"source": "patent US20080095826A1", "about": "“Method of Increasing Peripheral Blood Lymphocytes” (priority 2006, published 2008)", "type_in_all_cases": "in vivo, human", "key": {"[1]": {"tested_on": "Hospitalized elderly test subjects", "test": "Rice gruel with monosodium glutamate monohydrate fed to hospitalized elderly for 2 months; blood indices, eating ratio", "settings": "Friedman test, p<0.05, FIG. 1", "method": "Monosodium glutamate monohydrate was added to rice gruel to 0.5 wt %.\nHospitalized elderly test subjects (n=11 (2 males, 9 females), average age of 85.8±8.2, average body weight of 39.7±5.7 kg), were fed the above-mentioned rice gruel with glutamic acid 3 times a day for 2 months, establishing a continuous administration of 0.8 g on average of monosodium glutamate monohydrate per meal.\nFrom 1 month before the start of administration to 2 months after the start of administration, the eating ratio (ratio of weight of food actually eaten to weight of provided food) was measured. Blood samples were collected early in the morning immediately before the start of administration, 1 month after the start of adminstration, 2 months after the start of administration, and 1 month after the completion of administration, and the blood indices were measured. In addition, the body weight was measured."}, "[2]": {"tested_on": "Hospitalized elderly test subjects", "test": "Assessment of general condition by a nurse or care assistant (Table 2)", "method": "(§1) In the test of Example 1, the test subject was assessed by a nurse or a care assistant for the improvement of the general condition between immediately before the start of the administration of the rice gruel containing a salt of glutamic acid e and 2 months thereafter. The test subjects took the Hasegawa Dementia Scale-Revised for the following 9 items immediately before the administration and 2 months thereafter."}, "[3]": {"tested_on": "Hospitalized elderly test subjects", "test": "Hasegawa Dementia Scale-Revised", "settings": "before vs 2 months after intake; particularly for the items relating to speech; FIG. 3", "method": "as §1\n2. what year, what month, what date, what day of the week?\n5. continue to subtract 7 from 100\n6. say numbers in reverse order\n7. read out from memory of item 4\n9. say name of vegetables."}, "[4]": {"settings": "of 11 test subjects, before vs 2 months after start of administration"}}, "note": "Values joined by “and” are separate entries in the source; they are usually repeats but may differ in a detail not shown here. Equal entries are not always repeated.", "data": [{"smiles": "N[C@@H](CCC(=O)O)C(=O)[O-].O.[Na+]", "note": "[monosodium glutamate monohydrate, Monosodium glutamate monohydrate]", "values": [{"measurement": "peripheral lymphocyte count", "setting": "[1]; 1 month after completion of administration compared to during administration", "result": "significantly decreased"}, {"measurement": "peripheral lymphocyte count", "setting": "[1]; during 2 months of administration, 0.8 g per meal 3 times a day", "result": "increased significantly"}, {"measurement": "mind and body conditions such as speech recovery, expression of emotion", "setting": "[2]; almost all test subjects, 2 months after start of administration", "result": "tendency toward improvement"}, {"measurement": "Brighter facial expression: number of test subjects marked ◯", "setting": "[2]; [4]", "result": 8}, {"measurement": "Clearer articulation: number of test subjects marked ◯", "setting": "[2]; [4]", "result": 7}, {"measurement": "Eating by tightly holding a spoon: number of test subjects marked ◯", "setting": "[2]; [4]", "result": 2}, {"measurement": "Establishment of conversation: number of test subjects marked ◯", "setting": "[2]; [4]", "result": 4}, {"measurement": "Eyes can be opened wide: number of test subjects marked ◯", "setting": "[2]; [4]", "result": 6}, {"measurement": "Louder voice: number of test subjects marked ◯", "setting": "[2]; [4]", "result": 4}, {"measurement": "Outward facial expression (delight, anger, sorrow and pleasure): number of test subjects marked ◯", "setting": "[2]; [4]", "result": 6}, {"measurement": "Recognition of meal: number of test subjects marked ◯", "setting": "[2]; [4]", "result": 3}, {"measurement": "Recovery of memory: number of test subjects marked ◯", "setting": "[2]; [4]", "result": 2}, {"measurement": "Use of voice: number of test subjects marked ◯", "setting": "[2]; [4]", "result": 4}, {"measurement": "1 point for ◯, total points (scale of one to ten)", "setting": "[2]; one value per individual test subject (No. 6598, 7012, 7020, 6342, 6990, 5039, 7082, 7142, 6957, 5742, 6362), 2 months, monohydrate", "result": "7 points and 3 points (5×) and 10 points and 2 points (2×) and 6 points and 4 points"}, {"measurement": "Hasegawa Dementia Scale-Revised grade points", "setting": "[3]", "result": "grade points increased"}]}]}
